Entries after “also recorded” stand apart in the source; their conditions may differ. Where a SMILES comes first, the peptide text is derived from it. Bridges are numbered along the chain shown (N, C = ends). Roman numbers before positions name the chains, in order. Where no end group is shown, it is not given here. [ ]: non-standard residue; d: D form.
What was measured:
CTLL-2 cells = assay: IL-15-induced CTLL-2 cell proliferation assay; type: cell-based; conditions: for IC50: fixed IL-15 concentration of 300 μg/mL, colorimetric assay
Description: The proliferation of the CTLL-2 cell line is dependent on IL-15. Molecular entities that bind to IL-15 or its receptor subunit inhibit the proliferation of this cell line. To evaluate the antagonist capacity of peptides designed and obtained in the present invention, was followed the procedure described by Santos et al in 2012. Peptide 1 was included in all assays.
The realization of this colorimetric assay allowed calculating the IC50 value of each peptide, for a fixed IL-15 concentration of 300 μg/mL.

[1] = Solubility of the peptides
IL-15/IL-15Rα complex = biological target: T1, IL-15/IL-15Rα complex (Homo sapiens, UniProt Q13261); assay: Inhibition of IL-15/IL-15Rα complex formation (ELISA-type test); type: binding
T1 construct: all evaluated peptides recognized IL-15Rα immobilized on the ELISA plate
T1 sequence (Q13261 31-205 limits assumed, one chain of several): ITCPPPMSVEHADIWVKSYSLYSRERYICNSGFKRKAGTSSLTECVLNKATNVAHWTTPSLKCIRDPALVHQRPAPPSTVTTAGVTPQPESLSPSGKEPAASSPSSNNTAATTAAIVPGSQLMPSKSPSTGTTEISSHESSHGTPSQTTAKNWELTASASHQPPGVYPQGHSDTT
Description: Once the synthetic peptides were obtained and characterized, their binding capacity to IL-15Rα was determined. This evaluation was carried out by means of an ELISA type test. In addition, the % inhibition of the formation of the IL-15/IL-15Rα complex presented by each peptide was calculated. Both the procedure for the ELISA-type test and the equation used to calculate the % inhibition of the formation of the IL-15/IL-15Rα complex are detailed in the article published by Santos et al in 2012 (Santos A. et al. J. Pept. Sci. 2012; 18: 25-29).

CSCC[C@H](NC(=O)[C@H](C)NC(=O)[C@@H](NC(=O)[C@@H](NC(=O)[C@H](N)CCCCN)C(C)C)[C@@H](C)O)C(=O)N[C@@H](CCCCN)C(=O)N[C@@H](CS)C(=O)N[C@@H](Cc1ccccc1)C(=O)N[C@@H](CC(C)C)C(=O)N[C@@H](CC(C)C)C(N)=O [Peptide 2] (H-[dK]VTAMKCFLL-NH2)
IC50 (CTLL-2 cells): 100 µM

CSCC[C@H](NC(=O)[C@H](C)NC(=O)[C@@H](NC(=O)[C@H](NC(=O)[C@@H](N)CCCCN)C(C)C)[C@@H](C)O)C(=O)N[C@@H](CCCCN)C(=O)N[C@@H](CS)C(=O)N[C@@H](Cc1ccccc1)C(=O)N[C@@H](CC(C)C)C(=O)N[C@@H](CC(C)C)C(N)=O [Peptide 3] (H-K[dV]TAMKCFLL-NH2)
IC50 (CTLL-2 cells): 142 µM

CSCC[C@H](NC(=O)[C@H](C)NC(=O)[C@H](NC(=O)[C@@H](NC(=O)[C@@H](N)CCCCN)C(C)C)[C@H](C)O)C(=O)N[C@@H](CCCCN)C(=O)N[C@@H](CS)C(=O)N[C@@H](Cc1ccccc1)C(=O)N[C@@H](CC(C)C)C(=O)N[C@@H](CC(C)C)C(N)=O [Peptide 4] (H-KV[dT]AMKCFLL-NH2)
IC50 (CTLL-2 cells): 159 µM

CSCC[C@H](NC(=O)[C@@H](C)NC(=O)[C@@H](NC(=O)[C@@H](NC(=O)[C@@H](N)CCCCN)C(C)C)[C@@H](C)O)C(=O)N[C@@H](CCCCN)C(=O)N[C@@H](CS)C(=O)N[C@@H](Cc1ccccc1)C(=O)N[C@@H](CC(C)C)C(=O)N[C@@H](CC(C)C)C(N)=O [Peptide 5] (H-KVT[dA]MKCFLL-NH2)
solubility [1]: completely soluble | IC50 (CTLL-2 cells): 28 µM | % inhibition of IL-15/IL-15Rα complex formation (IL-15/IL-15Rα complex): 92%

CSCC[C@@H](NC(=O)[C@H](C)NC(=O)[C@@H](NC(=O)[C@@H](NC(=O)[C@@H](N)CCCCN)C(C)C)[C@@H](C)O)C(=O)N[C@@H](CCCCN)C(=O)N[C@@H](CS)C(=O)N[C@@H](Cc1ccccc1)C(=O)N[C@@H](CC(C)C)C(=O)N[C@@H](CC(C)C)C(N)=O [Peptide 6] (H-KVTA[dM]KCFLL-NH2)
IC50 (CTLL-2 cells): 292 µM

CSCC[C@H](NC(=O)[C@H](C)NC(=O)[C@@H](NC(=O)[C@@H](NC(=O)[C@@H](N)CCCCN)C(C)C)[C@@H](C)O)C(=O)N[C@H](CCCCN)C(=O)N[C@@H](CS)C(=O)N[C@@H](Cc1ccccc1)C(=O)N[C@@H](CC(C)C)C(=O)N[C@@H](CC(C)C)C(N)=O [Peptide 7] (H-KVTAM[dK]CFLL-NH2)
IC50 (CTLL-2 cells): 168 µM

CSCC[C@H](NC(=O)[C@H](C)NC(=O)[C@@H](NC(=O)[C@@H](NC(=O)[C@@H](N)CCCCN)C(C)C)[C@@H](C)O)C(=O)N[C@@H](CCCCN)C(=O)N[C@H](CS)C(=O)N[C@@H](Cc1ccccc1)C(=O)N[C@@H](CC(C)C)C(=O)N[C@@H](CC(C)C)C(N)=O [Peptide 8] (H-KVTAMK[dC]FLL-NH2)
IC50 (CTLL-2 cells): 103 µM

CSCC[C@H](NC(=O)[C@H](C)NC(=O)[C@@H](NC(=O)[C@@H](NC(=O)[C@@H](N)CCCCN)C(C)C)[C@@H](C)O)C(=O)N[C@@H](CCCCN)C(=O)N[C@@H](CS)C(=O)N[C@H](Cc1ccccc1)C(=O)N[C@@H](CC(C)C)C(=O)N[C@@H](CC(C)C)C(N)=O [Peptide 9] (H-KVTAMKC[dF]LL-NH2)
IC50 (CTLL-2 cells): 118 µM

CSCC[C@H](NC(=O)[C@H](C)NC(=O)[C@@H](NC(=O)[C@@H](NC(=O)[C@@H](N)CCCCN)C(C)C)[C@@H](C)O)C(=O)N[C@@H](CCCCN)C(=O)N[C@@H](CS)C(=O)N[C@@H](Cc1ccccc1)C(=O)N[C@H](CC(C)C)C(=O)N[C@@H](CC(C)C)C(N)=O [Peptide 10] (H-KVTAMKCF[dL]L-NH2)
IC50 (CTLL-2 cells): 134 µM

CSCC[C@H](NC(=O)[C@H](C)NC(=O)[C@@H](NC(=O)[C@@H](NC(=O)[C@@H](N)CCCCN)C(C)C)[C@@H](C)O)C(=O)N[C@@H](CCCCN)C(=O)N[C@@H](CS)C(=O)N[C@@H](Cc1ccccc1)C(=O)N[C@@H](CC(C)C)C(=O)N[C@H](CC(C)C)C(N)=O [Peptide 11] (H-KVTAMKCFL[dL]-NH2)
IC50 (CTLL-2 cells): 133 µM

CSCC[C@H](NC(=O)[C@@H](C)NC(=O)[C@@H](NC(=O)[C@@H](NC(=O)[C@@H](N)CCCCN)C(C)C)[C@@H](C)O)C(=O)N[C@@H](CCCCN)C(=O)N[C@@H](CSSC[C@H](NC(=O)[C@H](CCCCN)NC(=O)[C@H](CCSC)NC(=O)[C@@H](C)NC(=O)[C@@H](NC(=O)[C@@H](NC(=O)[C@@H](N)CCCCN)C(C)C)[C@@H](C)O)C(=O)N[C@@H](Cc1ccccc1)C(=O)N[C@@H](CC(C)C)C(=O)N[C@@H](CC(C)C)C(N)=O)C(=O)N[C@@H](Cc1ccccc1)C(=O)N[C@@H](CC(C)C)C(=O)N[C@@H](CC(C)C)C(N)=O [Peptide 12] (I: H-KVT[dA]MKCFLL-NH2 / II: H-KVT[dA]MKCFLL-NH2; disulfide I:7-II:7)
solubility [1]: completely soluble | IC50 (CTLL-2 cells): 8 µM | % inhibition of IL-15/IL-15Rα complex formation (IL-15/IL-15Rα complex): 96%

CSCC[C@H](NC(=O)[C@@H](C)NC(=O)[C@@H](NC(=O)[C@@H](NC(=O)[C@H](N)CCCCN)C(C)C)[C@@H](C)O)C(=O)N[C@@H](CCCCN)C(=O)N[C@@H](CS)C(=O)N[C@@H](Cc1ccccc1)C(=O)N[C@@H](CC(C)C)C(=O)N[C@@H](CC(C)C)C(N)=O [Peptide 13] (H-[dK]VT[dA]MKCFLL-NH2)
solubility [1]: completely soluble | IC50 (CTLL-2 cells): 29 µM | % inhibition of IL-15/IL-15Rα complex formation (IL-15/IL-15Rα complex): 89%

CSCC[C@H](NC(=O)[C@@H](C)NC(=O)[C@@H](NC(=O)[C@@H](NC(=O)[C@H](N)CCCCN)C(C)C)[C@@H](C)O)C(=O)N[C@@H](CCCCN)C(=O)N[C@@H](CSSC[C@H](NC(=O)[C@H](CCCCN)NC(=O)[C@H](CCSC)NC(=O)[C@@H](C)NC(=O)[C@@H](NC(=O)[C@@H](NC(=O)[C@H](N)CCCCN)C(C)C)[C@@H](C)O)C(=O)N[C@@H](Cc1ccccc1)C(=O)N[C@@H](CC(C)C)C(=O)N[C@@H](CC(C)C)C(N)=O)C(=O)N[C@@H](Cc1ccccc1)C(=O)N[C@@H](CC(C)C)C(=O)N[C@@H](CC(C)C)C(N)=O [Peptide 14] (I: H-[dK]VT[dA]MKCFLL-NH2 / II: H-[dK]VT[dA]MKCFLL-NH2; disulfide I:7-II:7)
solubility [1]: completely soluble | IC50 (CTLL-2 cells): 12 µM | % inhibition of IL-15/IL-15Rα complex formation (IL-15/IL-15Rα complex): 92%

CSCC[C@H](NC(=O)[C@@H](C)NC(=O)[C@@H](NC(=O)[C@@H](NC(=O)[C@@H](N)CCCCN)C(C)C)[C@@H](C)O)C(=O)N[C@@H](CCCCN)C(=O)N[C@H](CS)C(=O)N[C@@H](Cc1ccccc1)C(=O)N[C@@H](CC(C)C)C(=O)N[C@@H](CC(C)C)C(N)=O [Peptide 15] (H-KVT[dA]MK[dC]FLL-NH2; N-terminus assumed)
antagonist effect compared with Peptide 1 (CTLL-2 cells; IL-15-induced CTLL-2 proliferation): equal or less antagonist effect than the original peptide; also recorded: less active than Peptide 1 | IC50 (CTLL-2 cells): 296 µM

KVTAMKCFLL-NH2 [Peptide 1, reference compound]
IC50 (CTLL-2 cells): 130 µM

From patent US12297246B2, “Interleukin-15 activity antagonist peptide” (CENTRO DE INGENIERÍA GENÉTICA Y BIOTECNOLOGÍA, priority 2017, dated 2025)
